Test results taken from ChEMBL document CHEMBL5291721, “A preclinical secondary pharmacology resource illuminates target-adverse drug reaction associations of marketed drugs” (Nat Commun, 2023).

Key:
Vasopressin V1a receptor = Vasopressin V1a receptor (Homo sapiens, UniProt P37288)
[1] = molecular target: Sodium-dependent dopamine transporter (Homo sapiens, UniProt Q01959)
Histamine H1 receptor = Histamine H1 receptor (Homo sapiens, UniProt P35367)
[2] = molecular target: T1, Muscarinic acetylcholine receptor M1 (Homo sapiens, UniProt P11229); format: functional
T1 sequence (P11229 whole entry): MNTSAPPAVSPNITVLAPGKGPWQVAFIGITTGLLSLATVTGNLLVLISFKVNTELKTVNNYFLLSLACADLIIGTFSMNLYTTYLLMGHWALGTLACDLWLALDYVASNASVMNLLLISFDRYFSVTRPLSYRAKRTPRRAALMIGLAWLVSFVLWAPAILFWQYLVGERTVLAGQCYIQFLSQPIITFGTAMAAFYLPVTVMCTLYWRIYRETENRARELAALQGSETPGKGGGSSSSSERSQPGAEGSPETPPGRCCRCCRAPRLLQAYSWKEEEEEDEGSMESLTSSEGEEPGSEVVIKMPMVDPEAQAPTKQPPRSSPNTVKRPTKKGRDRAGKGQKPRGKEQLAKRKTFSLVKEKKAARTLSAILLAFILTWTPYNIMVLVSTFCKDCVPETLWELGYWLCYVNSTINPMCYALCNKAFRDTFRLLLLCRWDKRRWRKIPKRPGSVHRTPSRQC

[3] = molecular target: T2, Muscarinic acetylcholine receptor M2 (Homo sapiens, UniProt P08172); format: functional, cell-based
T2 sequence (P08172 whole entry): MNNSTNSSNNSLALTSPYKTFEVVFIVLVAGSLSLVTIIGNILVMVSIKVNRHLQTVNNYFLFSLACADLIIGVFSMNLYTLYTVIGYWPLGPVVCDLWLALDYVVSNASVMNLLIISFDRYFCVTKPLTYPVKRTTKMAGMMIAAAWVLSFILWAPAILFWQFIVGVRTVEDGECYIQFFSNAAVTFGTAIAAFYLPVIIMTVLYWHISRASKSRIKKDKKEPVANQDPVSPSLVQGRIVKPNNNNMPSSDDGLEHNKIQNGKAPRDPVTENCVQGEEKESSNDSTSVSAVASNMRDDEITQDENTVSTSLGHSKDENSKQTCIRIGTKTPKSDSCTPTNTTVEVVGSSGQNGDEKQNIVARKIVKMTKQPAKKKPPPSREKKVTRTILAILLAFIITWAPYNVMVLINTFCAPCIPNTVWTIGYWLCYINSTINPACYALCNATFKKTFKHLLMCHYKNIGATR

[4] = molecular target: Muscarinic acetylcholine receptor M3 (Homo sapiens, UniProt P20309)
[5] = molecular target: Beta-2 adrenergic receptor (Homo sapiens, UniProt P07550); format: functional, cell-based
[6] = molecular target: Voltage-dependent L-type calcium channel subunit alpha-1C (Rattus norvegicus, UniProt P22002); format: functional
[7] = molecular target: T3, Alpha-1A adrenergic receptor (Homo sapiens, UniProt P35348); format: functional, cell-based
T3 sequence (P35348 whole entry): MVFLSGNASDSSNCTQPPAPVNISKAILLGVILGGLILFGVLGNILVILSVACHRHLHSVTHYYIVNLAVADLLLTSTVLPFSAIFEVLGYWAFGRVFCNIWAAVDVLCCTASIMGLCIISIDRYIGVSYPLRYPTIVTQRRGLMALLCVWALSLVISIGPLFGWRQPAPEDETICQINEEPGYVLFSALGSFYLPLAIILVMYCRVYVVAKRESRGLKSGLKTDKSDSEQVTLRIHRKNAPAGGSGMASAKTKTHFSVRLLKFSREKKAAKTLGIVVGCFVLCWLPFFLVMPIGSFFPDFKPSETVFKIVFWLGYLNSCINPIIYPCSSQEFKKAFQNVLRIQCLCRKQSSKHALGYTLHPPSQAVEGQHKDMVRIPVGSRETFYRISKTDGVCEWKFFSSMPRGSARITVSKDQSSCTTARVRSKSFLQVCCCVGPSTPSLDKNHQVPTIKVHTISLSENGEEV

Prothrombin = Prothrombin (Homo sapiens, UniProt P00734); format: functional
[8] = molecular target: Prostaglandin G/H synthase 1 (Homo sapiens, UniProt P23219); format: functional
[9] = molecular target: Sodium-dependent noradrenaline transporter (Homo sapiens, UniProt P23975)
[10] = molecular target: 3',5'-cyclic-AMP phosphodiesterase 4A (Homo sapiens, UniProt P27815); format: functional
[11] = molecular target: T4, Alpha-2A adrenergic receptor (Homo sapiens, UniProt P08913)
T4 sequence (P08913 whole entry): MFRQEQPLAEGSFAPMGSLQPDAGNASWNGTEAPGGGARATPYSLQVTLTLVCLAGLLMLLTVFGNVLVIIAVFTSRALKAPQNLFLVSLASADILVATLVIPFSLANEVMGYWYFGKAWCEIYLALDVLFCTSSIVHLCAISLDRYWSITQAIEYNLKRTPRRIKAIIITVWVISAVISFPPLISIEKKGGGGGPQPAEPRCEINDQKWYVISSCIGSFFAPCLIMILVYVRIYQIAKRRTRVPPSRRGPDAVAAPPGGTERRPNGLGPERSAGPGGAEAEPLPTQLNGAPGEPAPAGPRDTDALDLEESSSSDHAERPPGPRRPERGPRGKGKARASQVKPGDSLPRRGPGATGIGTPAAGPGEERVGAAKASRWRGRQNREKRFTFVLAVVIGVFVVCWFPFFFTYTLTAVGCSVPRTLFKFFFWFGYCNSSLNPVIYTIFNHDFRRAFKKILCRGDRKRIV

Mu-type opioid receptor = Mu-type opioid receptor (Homo sapiens, UniProt P35372)
Melanocortin receptor 4 = Melanocortin receptor 4 (Homo sapiens, UniProt P32245)
Also: assay procedure not described here.

Sequence of Voltage-dependent L-type calcium channel subunit alpha-1C (P22002 whole entry): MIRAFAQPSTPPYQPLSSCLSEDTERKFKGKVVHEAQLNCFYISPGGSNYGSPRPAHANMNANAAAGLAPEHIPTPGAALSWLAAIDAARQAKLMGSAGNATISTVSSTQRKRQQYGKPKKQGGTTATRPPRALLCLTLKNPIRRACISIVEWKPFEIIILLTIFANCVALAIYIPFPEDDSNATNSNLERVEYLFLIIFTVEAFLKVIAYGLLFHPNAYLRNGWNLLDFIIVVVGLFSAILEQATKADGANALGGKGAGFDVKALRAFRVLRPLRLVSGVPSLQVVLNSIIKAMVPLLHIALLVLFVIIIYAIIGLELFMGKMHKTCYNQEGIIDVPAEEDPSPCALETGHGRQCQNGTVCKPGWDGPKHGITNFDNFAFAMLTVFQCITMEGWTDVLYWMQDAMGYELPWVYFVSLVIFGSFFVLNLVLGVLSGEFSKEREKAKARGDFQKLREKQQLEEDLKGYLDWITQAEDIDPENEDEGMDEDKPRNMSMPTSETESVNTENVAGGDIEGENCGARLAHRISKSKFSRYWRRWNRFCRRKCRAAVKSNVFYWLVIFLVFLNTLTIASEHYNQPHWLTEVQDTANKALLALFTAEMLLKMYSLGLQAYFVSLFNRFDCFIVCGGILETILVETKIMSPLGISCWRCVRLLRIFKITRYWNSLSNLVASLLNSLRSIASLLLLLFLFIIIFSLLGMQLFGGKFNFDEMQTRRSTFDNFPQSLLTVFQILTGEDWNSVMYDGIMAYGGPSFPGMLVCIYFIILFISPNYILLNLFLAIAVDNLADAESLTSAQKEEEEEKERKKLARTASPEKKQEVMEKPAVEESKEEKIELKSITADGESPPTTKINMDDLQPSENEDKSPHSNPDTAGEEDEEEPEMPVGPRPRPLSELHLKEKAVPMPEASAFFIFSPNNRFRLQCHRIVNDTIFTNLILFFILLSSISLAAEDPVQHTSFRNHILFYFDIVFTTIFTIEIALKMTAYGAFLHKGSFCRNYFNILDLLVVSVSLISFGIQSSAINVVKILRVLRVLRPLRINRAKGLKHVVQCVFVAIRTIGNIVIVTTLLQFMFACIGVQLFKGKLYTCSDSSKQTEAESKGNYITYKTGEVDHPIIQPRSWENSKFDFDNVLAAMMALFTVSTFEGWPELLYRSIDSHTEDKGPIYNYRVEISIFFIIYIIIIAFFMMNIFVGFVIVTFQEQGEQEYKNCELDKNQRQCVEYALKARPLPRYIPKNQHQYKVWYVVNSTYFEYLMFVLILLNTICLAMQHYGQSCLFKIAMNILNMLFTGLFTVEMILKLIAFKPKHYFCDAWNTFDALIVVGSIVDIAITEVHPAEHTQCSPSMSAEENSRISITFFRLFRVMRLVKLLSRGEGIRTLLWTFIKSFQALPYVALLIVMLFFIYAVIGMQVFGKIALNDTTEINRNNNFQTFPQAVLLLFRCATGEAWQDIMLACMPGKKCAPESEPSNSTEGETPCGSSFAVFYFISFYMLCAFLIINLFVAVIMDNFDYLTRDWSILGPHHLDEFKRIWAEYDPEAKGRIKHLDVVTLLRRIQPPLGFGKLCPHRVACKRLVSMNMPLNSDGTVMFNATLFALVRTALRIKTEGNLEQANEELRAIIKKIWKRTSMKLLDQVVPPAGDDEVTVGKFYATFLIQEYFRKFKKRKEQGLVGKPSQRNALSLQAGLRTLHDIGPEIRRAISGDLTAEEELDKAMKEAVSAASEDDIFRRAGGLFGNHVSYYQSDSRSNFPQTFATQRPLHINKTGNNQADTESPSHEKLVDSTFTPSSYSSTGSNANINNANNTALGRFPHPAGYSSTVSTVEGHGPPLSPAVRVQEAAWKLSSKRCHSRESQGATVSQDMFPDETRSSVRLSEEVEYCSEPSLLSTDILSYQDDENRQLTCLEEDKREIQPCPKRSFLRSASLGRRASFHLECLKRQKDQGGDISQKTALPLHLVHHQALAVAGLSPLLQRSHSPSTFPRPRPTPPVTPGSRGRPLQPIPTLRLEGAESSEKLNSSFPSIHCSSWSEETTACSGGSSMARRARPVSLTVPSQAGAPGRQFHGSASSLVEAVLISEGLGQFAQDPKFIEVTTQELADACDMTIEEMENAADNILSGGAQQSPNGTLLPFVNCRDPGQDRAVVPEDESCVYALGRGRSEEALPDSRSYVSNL
Sequence of Sodium-dependent dopamine transporter (Q01959 whole entry): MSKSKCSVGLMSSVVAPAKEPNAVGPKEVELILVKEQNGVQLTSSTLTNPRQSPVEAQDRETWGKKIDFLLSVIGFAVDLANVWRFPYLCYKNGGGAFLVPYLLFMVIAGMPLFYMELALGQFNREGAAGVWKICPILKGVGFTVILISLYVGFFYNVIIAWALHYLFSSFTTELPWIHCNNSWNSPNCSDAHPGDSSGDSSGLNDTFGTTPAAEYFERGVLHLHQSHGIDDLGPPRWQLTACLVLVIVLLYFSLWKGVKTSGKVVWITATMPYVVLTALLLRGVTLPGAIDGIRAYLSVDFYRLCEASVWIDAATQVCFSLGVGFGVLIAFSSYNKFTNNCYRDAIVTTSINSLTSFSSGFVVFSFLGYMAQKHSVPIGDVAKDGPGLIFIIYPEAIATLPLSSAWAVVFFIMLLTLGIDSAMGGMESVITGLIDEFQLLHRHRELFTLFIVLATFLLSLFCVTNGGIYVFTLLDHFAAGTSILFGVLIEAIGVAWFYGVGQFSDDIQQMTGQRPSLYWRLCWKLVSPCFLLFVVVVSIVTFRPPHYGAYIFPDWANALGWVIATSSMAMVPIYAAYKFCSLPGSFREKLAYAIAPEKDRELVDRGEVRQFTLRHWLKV
Sequence of Histamine H1 receptor (P35367 whole entry): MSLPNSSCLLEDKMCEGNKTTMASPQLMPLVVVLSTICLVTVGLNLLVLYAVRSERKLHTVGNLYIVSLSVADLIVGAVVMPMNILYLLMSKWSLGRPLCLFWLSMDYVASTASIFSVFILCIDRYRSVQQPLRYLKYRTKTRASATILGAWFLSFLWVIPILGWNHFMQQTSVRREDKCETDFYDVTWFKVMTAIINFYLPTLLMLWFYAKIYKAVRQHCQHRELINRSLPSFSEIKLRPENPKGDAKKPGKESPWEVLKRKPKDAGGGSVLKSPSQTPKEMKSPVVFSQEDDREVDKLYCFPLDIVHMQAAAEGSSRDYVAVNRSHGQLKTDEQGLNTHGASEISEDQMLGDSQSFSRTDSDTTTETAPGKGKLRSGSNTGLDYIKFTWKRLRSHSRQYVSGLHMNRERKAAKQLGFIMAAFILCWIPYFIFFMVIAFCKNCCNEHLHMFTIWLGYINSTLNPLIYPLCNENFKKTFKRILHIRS
Sequence of Muscarinic acetylcholine receptor M3 (P20309 whole entry): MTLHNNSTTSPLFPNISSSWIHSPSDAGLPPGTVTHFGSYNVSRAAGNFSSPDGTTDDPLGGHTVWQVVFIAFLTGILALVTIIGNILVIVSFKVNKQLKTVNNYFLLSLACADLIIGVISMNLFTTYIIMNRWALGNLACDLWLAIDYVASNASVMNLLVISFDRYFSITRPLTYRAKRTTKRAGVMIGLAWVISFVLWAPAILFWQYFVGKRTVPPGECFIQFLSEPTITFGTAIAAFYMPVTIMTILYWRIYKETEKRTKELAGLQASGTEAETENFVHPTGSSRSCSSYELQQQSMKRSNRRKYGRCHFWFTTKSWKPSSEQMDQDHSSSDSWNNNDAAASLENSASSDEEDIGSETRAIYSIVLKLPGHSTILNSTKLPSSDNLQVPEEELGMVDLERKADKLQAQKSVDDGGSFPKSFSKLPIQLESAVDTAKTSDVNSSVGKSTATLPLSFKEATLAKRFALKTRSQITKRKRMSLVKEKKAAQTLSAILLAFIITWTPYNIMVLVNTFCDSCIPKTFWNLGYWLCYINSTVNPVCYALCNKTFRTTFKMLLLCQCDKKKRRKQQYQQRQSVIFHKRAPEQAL
Sequence of Beta-2 adrenergic receptor (P07550 whole entry): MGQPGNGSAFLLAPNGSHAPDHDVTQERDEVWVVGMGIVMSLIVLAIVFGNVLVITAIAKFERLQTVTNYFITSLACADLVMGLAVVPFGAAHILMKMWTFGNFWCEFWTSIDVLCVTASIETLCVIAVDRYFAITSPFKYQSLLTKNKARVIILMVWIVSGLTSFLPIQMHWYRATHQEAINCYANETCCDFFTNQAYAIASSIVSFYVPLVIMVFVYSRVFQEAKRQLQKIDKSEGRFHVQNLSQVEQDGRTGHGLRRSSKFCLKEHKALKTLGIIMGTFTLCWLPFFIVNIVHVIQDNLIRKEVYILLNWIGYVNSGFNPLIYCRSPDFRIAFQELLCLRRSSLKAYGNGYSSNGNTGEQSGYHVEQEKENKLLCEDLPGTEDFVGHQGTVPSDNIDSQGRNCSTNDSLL
Sequence of Mu-type opioid receptor (P35372 whole entry): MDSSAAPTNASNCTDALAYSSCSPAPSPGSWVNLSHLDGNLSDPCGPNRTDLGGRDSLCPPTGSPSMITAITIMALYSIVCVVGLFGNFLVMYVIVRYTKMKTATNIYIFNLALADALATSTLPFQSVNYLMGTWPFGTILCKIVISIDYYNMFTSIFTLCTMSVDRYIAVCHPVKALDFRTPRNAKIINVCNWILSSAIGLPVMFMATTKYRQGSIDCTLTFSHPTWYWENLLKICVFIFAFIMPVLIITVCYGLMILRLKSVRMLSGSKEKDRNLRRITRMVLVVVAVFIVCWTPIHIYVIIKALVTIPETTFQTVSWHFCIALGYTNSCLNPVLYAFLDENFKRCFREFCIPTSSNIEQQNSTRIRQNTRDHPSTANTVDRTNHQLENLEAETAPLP
Sequence of Melanocortin receptor 4 (P32245 whole entry): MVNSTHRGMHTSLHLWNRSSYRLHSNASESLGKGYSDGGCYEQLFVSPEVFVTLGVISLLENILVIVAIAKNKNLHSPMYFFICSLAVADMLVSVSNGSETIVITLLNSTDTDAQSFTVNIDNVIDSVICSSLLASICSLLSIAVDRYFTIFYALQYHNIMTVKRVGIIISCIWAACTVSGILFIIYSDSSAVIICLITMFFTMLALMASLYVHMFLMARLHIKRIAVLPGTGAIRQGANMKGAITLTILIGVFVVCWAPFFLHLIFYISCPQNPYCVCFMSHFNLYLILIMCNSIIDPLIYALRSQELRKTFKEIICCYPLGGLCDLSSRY

Structure (SMILES)	AC50 (Vasopressin V1a receptor) [µM]	AC50 [1] [µM]	AC50 [3] [µM]	AC50 [6] [µM]	AC50 (Melanocortin receptor 4) [µM]	AC50 (Histamine H1 receptor) [µM]	AC50 [2] [µM]	AC50 [4] [µM]	AC50 [5] [µM]	AC50 [7] [µM]	AC50 (Prothrombin) [µM]	AC50 [8] [µM]	AC50 [9] [µM]	AC50 [10] [µM]	AC50 [11] [µM]	AC50 (Mu-type opioid receptor) [µM]
C[C@@H](O)[C@H]1C(=O)N2C(C(=O)O)=C(SCCN=CN)C[C@H]12 [IMIPENEM ANHYDROUS]	> 300	> 300	> 300	–	–	> 300	260	> 300	> 300	> 300	–	–	–	–	–	–
c1cnc2cc3c(cc2n1)[C@@H]1CNC[C@H]3C1 [VARENICLINE]	> 30	> 30	> 30	–	–	> 30	> 30	> 30	> 30	> 30	–	–	–	–	–	–
C#CCN(C)Cc1ccccc1 [PARGYLINE]	–	–	> 30	–	–	> 30	> 30	> 30	> 30	> 30	> 30	> 30	> 30	> 30	> 30	> 30
CO[C@@H]1[C@@H](OC(N)=O)[C@@H](O)[C@H](Oc2ccc3c(O)c(NC(=O)c4ccc(O)c(CC=C(C)C)c4)c(=O)oc3c2C)OC1(C)C [NOVOBIOCIN]	> 30	> 30	> 30	–	–	> 30	> 30	> 30	> 30	> 30	–	–	–	–	–	–
O=C(Cc1cccs1)N[C@@H]1C(=O)N2C(C(=O)[O-])=C(C[n+]3ccccc3)CS[C@H]12 [CEPHALORIDINE]	–	–	> 30	–	–	> 30	> 30	> 30	> 30	> 30	> 30	16.4	> 30	> 3	> 30	> 30
C[C@H](CCC(=O)O)[C@H]1CC[C@H]2[C@@H]3[C@H](O)C[C@@H]4C[C@H](O)CC[C@]4(C)[C@H]3CC[C@]12C [CHENODIOL]	> 30	> 30	27	–	–	> 30	> 30	> 30	> 30	> 30	–	–	–	–	–	–
CN(C)CCCC1(c2ccc(F)cc2)OCc2cc(C#N)ccc21 (stereo unspecified) [CITALOPRAM]	> 10	–	–	> 10	> 30	–	–	–	> 30	–	> 30	> 30	–	> 30	> 30	–
C[C@H](Nc1ncnc2[nH]cnc12)c1cc2cccc(Cl)c2c(=O)n1-c1ccccc1 [DUVELISIB]	> 30	> 30	> 30	–	–	> 30	> 30	> 30	> 30	> 30	> 30	> 30	> 30	> 30	> 30	> 30
CN(C)CCOC(c1ccc(Cl)cc1)c1ccccn1 (stereo unspecified) [CARBINOXAMINE]	> 30	5.2	26	–	–	0.11	> 30	> 30	> 30	> 30	–	–	–	–	–	–
C[C@H](CS)C(=O)N1CCC[C@H]1C(=O)O [CAPTOPRIL]	–	> 30	> 10	> 10	> 30	–	–	–	> 30	> 30	–	–	–	–	–	–
Cn1cnc2c(F)c(Nc3ccc(Br)cc3F)c(C(=O)NOCCO)cc21 [BINIMETINIB]	> 30	> 30	> 30	–	–	> 30	> 30	> 30	> 30	> 30	–	–	–	–	–	–
CCC[C@@]1(CCc2ccccc2)CC(O)=C([C@H](CC)c2cccc(NS(=O)(=O)c3ccc(C(F)(F)F)cn3)c2)C(=O)O1	> 30	27	6.3	–	–	> 30	> 30	> 30	> 30	> 30	–	–	–	–	–	–
CCOCC(O)COc1ccc(NC(=O)CC[S+](C)C)cc1 (stereo unspecified)	> 30	> 30	> 30	–	–	> 30	> 30	> 30	> 30	> 30	–	–	–	–	–	–

More lines, main results first:

AC50 (Vasopressin V1a receptor) [µM]	AC50 [1] [µM]	AC50 [3] [µM]	AC50 [6] [µM]	AC50 (Melanocortin receptor 4) [µM]	Structure (SMILES)	AC50 (Histamine H1 receptor) [µM]	AC50 [2] [µM]	AC50 [4] [µM]	AC50 [5] [µM]	AC50 [7] [µM]	AC50 (Prothrombin) [µM]	AC50 [8] [µM]	AC50 [9] [µM]	AC50 [10] [µM]	AC50 [11] [µM]	AC50 (Mu-type opioid receptor) [µM]
> 30	> 30	> 30	> 30	–	CCOC(=O)Nc1ccc(NCc2ccc(F)cc2)nc1N [FLUPIRTINE]	> 30	> 30	> 30	> 30	–	–	–	–	–	–	–
> 30	> 30	> 30	5	–	CC(C)/N=c1\cc2n(-c3ccc(Cl)cc3)c3ccccc3nc-2cc1Nc1ccc(Cl)cc1 [CLOFAZIMINE]	8.56	13	> 30	> 30	> 30	–	–	–	–	–	–
> 30	> 30	> 30	–	–	O=C(O)[C@H]1/C(=C/CO)O[C@@H]2CC(=O)N21 [CLAVULANIC ACID]	> 30	> 30	> 30	> 30	> 30	–	–	–	–	–	–
> 30	> 30	> 30	–	–	COc1cc2c(cc1OC)C1CC(=O)C(CC(C)C)CN1CC2 (stereo unspecified) [TETRABENAZINE]	> 30	> 30	> 30	> 30	> 30	–	–	–	–	–	–
> 30	> 30	> 30	–	–	CC(C)(CO)c1cc2cc(NC(=O)C3(c4ccc5c(c4)OC(F)(F)O5)CC3)c(F)cc2n1C[C@@H](O)CO [TEZACAFTOR]	> 30	> 30	> 30	> 30	> 30	–	–	–	–	–	–
> 30	> 30	> 30	–	–	Nc1c2c(nc3ccccc13)CCCC2O (stereo unspecified) [VELNACRINE]	> 30	> 30	> 30	> 30	> 30	–	–	–	–	–	–
> 10	> 10	> 10	–	> 30	Nc1nnc(-c2cccc(Cl)c2Cl)c(N)n1 [LAMOTRIGINE]	–	–	–	> 30	> 30	–	–	–	–	–	–
